Assay results from patent US20230092163A1, “COMPOUNDS AND COMPOSITIONS FOR TREATING CONDITIONS ASSOCIATED WITH STING ACTIVITY” (IFM Due, Inc., priority 2019, published 2023).

target: STING (Homo sapiens, UniProt Q86WV6, G230A/H232R/R293Q/R71H); assay: STING reporter assay: THP1-Dual KO-IFNAR2 cells stimulated with 2′3′cGAMP, luciferase reporter activity; format: cell-based; conditions: 15 μM 2′3′cGAMP, 24h, class symbols
In short: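 THP1-Dual KO-IFNAR2 cells (2×10E6 cells/mL) treated with compounds at 0.0017-100 μM, then stimulated with 2′3′cGAMP (15 μM final) delivered by Lipofectamine 2000; 24 h at 37° C. Supernatant luciferase read by QUANTI-Luc Plus luminescence; EC50 from dose-response.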

Chain of STING (Q86WV6 whole entry R71H/G230A/H232R/R293Q): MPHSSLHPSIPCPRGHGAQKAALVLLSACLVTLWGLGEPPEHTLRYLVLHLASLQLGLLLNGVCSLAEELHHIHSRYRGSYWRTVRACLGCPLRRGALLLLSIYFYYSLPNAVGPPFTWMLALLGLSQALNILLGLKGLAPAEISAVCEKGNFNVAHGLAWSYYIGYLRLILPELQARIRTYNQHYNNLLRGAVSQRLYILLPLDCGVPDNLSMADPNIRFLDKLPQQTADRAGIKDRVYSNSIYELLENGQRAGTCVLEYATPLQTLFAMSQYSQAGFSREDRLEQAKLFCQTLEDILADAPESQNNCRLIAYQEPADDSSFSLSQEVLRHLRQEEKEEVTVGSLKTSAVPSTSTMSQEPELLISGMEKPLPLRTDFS

EC50 [µM] | SMILES
0.04 to 0.2 | O=C(Nc1ccc(C(F)(F)F)cc1)Nc1cc(Br)c2cc[nH]c2c1 [Compound 155]
5 to 100 | O=C(Nc1ccc2[nH]ccc2c1)Nc1cc(C2CCC2)no1 [Compound 302]
1 to 5 | O=C(NCCSCc1c(Cl)cccc1Cl)Nc1ccc2cc[nH]c2c1 [Compound 204]
1 to 5 | O=C(NCCc1ccccc1Cl)Nc1ccc2cc[nH]c2c1 [Compound 211]
0.2 to 1 | Brc1ccc2ccc(Nc3ccc4cc[nH]c4c3)nc2c1 [Compound 607]
1 to 5 | O=C(NCc1ccc(OCC(F)(F)F)nc1)Nc1ccc2cc[nH]c2c1 [Compound 176]
0.2 to 1 | FC(F)(F)c1nc(Nc2cc(Cl)c3cc[nH]c3c2)ccc1Cl [Compound 568]
1 to 5 | O=C(NCCOc1ccccc1C(F)(F)F)Nc1ccc2cc[nH]c2c1 [Compound 524]
5 to 100 | O=C(Nc1ccc2[nH]ccc2c1)Nc1cc2cccc(C(F)(F)F)n2n1 [Compound 309]
5 to 100 | O=C(NCc1cc(Cl)cc(C(F)(F)F)c1)Nc1ccc2[nH]ccc2c1 [Compound 318]
0.2 to 1 | O=C(NCCc1c[nH]c2cc(OC(F)(F)F)ccc12)Nc1ccc2cc[nH]c2c1 [Compound 173]
5 to 100 | Cn1ccc2ccc(NC(=O)Nc3ccc(C(F)(F)F)cc3)cc21 [Compound 268]
1 to 5 | O=c1c(Nc2ccc(C(F)(F)F)cc2)c(Nc2ccc3cc[nH]c3c2)c1=O [Compound 620]
5 to 100 | FC(F)(F)c1cccc(Nc2ccc3cc[nH]c3c2)n1 [Compound 609]
1 to 5 | Cc1ccc(Nc2ccc3cc[nH]c3c2)nc1C(F)(F)F [Compound 421, N-(5-methyl-6-(trifluoromethyl)pyridin-2-yl)-1H-indol-6-amine]
0.2 to 1 | CCCCC1CCC(NC(=O)Nc2ccc3cc[nH]c3c2)CC1 (stereo not drawn) [Compound 271]
1 to 5 | O=C(Nc1cccc(C(F)(F)F)c1)Nc1cc(CCO)c2cc[nH]c2c1 [Compound 509, 1-(4-(2-hydroxyethyl)-1H-indol-6-yl)-3-(3-(trifluoromethyl)phenyl)urea]
1 to 5 | O=C(Nc1cccc(C(F)(F)F)c1)Nc1ccc2c(F)c[nH]c2c1 [Compound 523]
1 to 5 | C[C@@H](NC(=O)Nc1cc(Cl)c2cc[nH]c2c1)c1cc(Cl)cc(C(F)(F)F)c1 [Compound 521, (R)-1-(4-chloro-1H-indol-6-yl)-3-(1-(3-chloro-5-(trifluoromethyl)phenyl)ethyl)urea]
0.2 to 1 | O=C(Nc1ccc(F)c(F)c1)Nc1ccc2cc[nH]c2c1 [Compound 164]
0.2 to 1 | O=C(NCCOc1cccc(C(F)(F)F)c1)Nc1ccc2cc[nH]c2c1 [Compound 525]
0.2 to 1 | Clc1cc(Cl)c2ccc(Nc3ccc4cc[nH]c4c3)nc2c1 [Compound 577, 5,7-dichloro-N-(1H-indol-6-yl)quinolin-2-amine]

EC50 [µM] | SMILES
1 to 5 | CNC(=O)Nc1ccc2[nH]cc(NC(=O)Nc3ccc(C(F)(F)F)cc3)c2c1 [Compound 275]
5 to 100 | O=C(NCc1cc(Cl)cc(C(F)(F)F)c1)Nc1ccc2c(F)c[nH]c2c1 [Compound 538]
5 to 100 | CNC(=O)Cc1c[nH]c2cc(NC(=O)Nc3ccc(C(F)(F)F)cc3)ccc12 [Compound 540]
0.2 to 1 | O=C(Nc1ccc(C2CC(F)(F)C2)c(F)c1)Nc1ccc2cc[nH]c2c1 [Compound 240]
1 to 5 | O=C(Nc1cccc(OC(F)F)c1)Nc1ccc2cc[nH]c2c1 [Compound 228]
5 to 100 | N#Cc1cc2ccc(NC(=O)Nc3ccc(C(F)(F)F)cc3)cc2[nH]1 [Compound 255]
1 to 5 | FC(F)c1ccc2ccc(Nc3ccc4cc[nH]c4c3)nc2c1 [Compound 586, 7-(difluoromethyl)-N-(1H-indol-6-yl)quinolin-2-amine]
1 to 5 | O=C(Nc1ccc(C(F)(F)F)cc1)Nc1cc(-c2cn[nH]c2)c2cc[nH]c2c1 [Compound 167]
0.2 to 1 | Cc1cc2ccc(Nc3ccc4cc[nH]c4c3)nc2cc1C(F)(F)F [Compound 552]
5 to 100 | O=C(NCCC1CC1)Nc1ccc2cc[nH]c2c1 [Compound 162]
1 to 5 | O=C(Nc1ccc(S(F)(F)(F)(F)F)cc1)Nc1ccc2[nH]ccc2c1 [Compound 291]
1 to 5 | FC(F)(F)c1cc2nc(Nc3ccc4cc[nH]c4c3)ccc2cc1Cl [Compound 556]
1 to 5 | COCCc1cc(NC(=O)Nc2ccc(C(F)(F)F)cc2)cc2[nH]ccc12 [Compound 505]
5 to 100 | c1cnc2nc(Nc3ccc4cc[nH]c4c3)ccc2c1 [Compound 573, N-(1H-indol-6-yl)-1,8-naphthyridin-2-amine]
0.04 to 0.2 | CCCCc1cccc(NC(=O)Nc2ccc3cc[nH]c3c2)c1 [Compound 270]
1 to 5 | c1cnc2nc(Nc3ccc4ccn(-c5ccc6cccnc6n5)c4c3)ccc2c1 [Compound 560, N-[1-(1,8-naphthyridin-2-yl)-1H-indol-6-yl]-1,8-naphthyridin-2-amine]
1 to 5 | O=C(Nc1ccc2cc[nH]c2c1)Nc1ccc2cc[nH]c2c1 [Compound 170]
5 to 100 | O=S(=O)(c1ccc(Nc2ccc3cc[nH]c3c2)nc1)N1CCCCC1 [Compound 422, N-(5-(piperidin-1-ylsulfonyl)pyridin-2-yl)-1H-indol-6-amine]
0.2 to 1 | O=C(Nc1ccc(C(F)(F)F)cc1)Nc1ccc2c(Br)c[nH]c2c1 [Compound 196]
1 to 5 | c1cc2ccc(Nc3ccc4ccc(C5CCC5)cc4n3)cc2[nH]1 [Compound 386]
0.2 to 1 | O=C(Nc1ccc(S(=O)(=O)C(F)(F)F)cc1)Nc1ccc2cc[nH]c2c1 [Compound 200]
5 to 100 | CNS(=O)(=O)c1c[nH]c2cc(NC(=O)Nc3ccc(C(F)(F)F)cc3)ccc12 [Compound 508]

same assay, conditions: 15 μM 2′3′cGAMP, 24h, numeric bounds

EC50 [µM] | SMILES
> 30 | N#Cc1c[nH]c2cc(NC(=O)NCc3cc(Cl)cc(C(F)(F)F)c3)ccc12 [Compound 532]
> 30 | c1cc2ccc(Nc3ccc4c(cnn4C4CCCCO4)n3)cc2[nH]1 (stereo not drawn) [Compound 600, N-[1-(oxan-2-yl)-1H-pyrazolo[4,3-b]pyridin-5-yl]-1H-indol-6-amine]
> 30 | O=C(NCCc1c[nH]c2cc(OC(F)(F)F)ccc12)Nc1ccc2[nH]ccc2c1 [Compound 314]
> 30 | O=C(NCC1(c2cccc(Cl)c2)CCOCC1)Nc1ccc2cc[nH]c2c1 [Compound 154]
> 30 | Cc1cc(CNC(=O)Nc2ccc3[nH]ccc3c2)nn1C [Compound 322]
> 30 | CC1(C)Oc2ccc(Nc3ccc4cc[nH]c4c3)nc2NC1=O [Compound 585, 6-[(1H-indol-6-yl)amino]-2,2-dimethyl-2H,3H,4H-pyrido[3,2-b][1,4]oxazin-3-one]
> 30 | Cc1nc(Nc2ccc3ccn(-c4ccc(OC(C)C)c(C)n4)c3c2)ccc1OC(C)C [Compound 569, N,1-bis[6-methyl-5-(propan-2-yloxy)pyridin-2-yl]-1H-indol-6-amine]
> 30 | Cc1cc(CNC(=O)Nc2ccc3cc[nH]c3c2)nn1C [Compound 185]
> 30 | Cc1ccccc1CNC(=O)Nc1ccc2[nH]ccc2c1 [Compound 338]
> 30 | Clc1ccc2ccc(Nc3ccc4cc[nH]c4c3)nc2c1Cl [Compound 425, 7,8-dichloro-N-(1H-indol-6-yl)quinolin-2-amine]
> 30 | O=C(Nc1ccc2[nH]ccc2c1)Nc1ccccc1F [Compound 364]
> 30 | Cc1ccc(CNC(=O)Nc2ccc3cc[nH]c3c2)cc1 [Compound 192]
> 30 | O=C(NCC1CCC1)Nc1ccc2[nH]ccc2c1 [Compound 331]
> 30 | FC(F)(F)Oc1cccc(Nc2ccc3cc[nH]c3c2)n1 [Compound 409, N-(6-(trifluoromethoxy)pyridin-2-yl)-1H-indol-6-amine]
> 30 | O=C(Nc1ccc(F)c(F)c1)Nc1ccc2[nH]ccc2c1 [Compound 342]
> 30 | CC(F)(F)c1ccnc(Nc2ccc3cc[nH]c3c2)c1 [Compound 416, N-(4-(1,1-difluoroethyl)pyridin-2-yl)-1H-indol-6-amine]

EC50 [µM] | SMILES
> 30 | O=C(NCCc1ccccc1Cl)Nc1ccc2[nH]ccc2c1 [Compound 355]
> 5 | CCCCC1CCC(NC(=O)Nc2ccc3[nH]ccc3c2)CC1 (stereo not drawn) [Compound 379]
> 30 | CC(CNC(=O)Nc1ccc2cc[nH]c2c1)c1ccccc1 (stereo not drawn) [Compound 213]
> 30 | O=C(NCc1cnccn1)Nc1ccc2[nH]ccc2c1 [Compound 333]
> 30 | c1cc(Nc2ccc3cc[nH]c3c2)nc(N2CCCC2)c1 [Compound 397, N-(6-(pyrrolidin-1-yl)pyridin-2-yl)-1H-indol-6-amine]
> 30 | FC(F)(F)COc1ccnc(Nc2ccc3cc[nH]c3c2)n1 [Compound 410, N-(4-(2,2,2-trifluoroethoxy)pyrimidin-2-yl)-1H-indol-6-amine]
> 30 | CC(C)(C)OC(=O)N1CCc2nc(Nc3ccc4cc[nH]c4c3)ncc2C1 [Compound 419, tert-butyl 2-((1H-indol-6-yl)amino)-7,8-dihydropyrido[4,3-d]pyrimidine-6(5H)-carboxylate]
> 30 | OCc1cccnc1Nc1ccc2cc[nH]c2c1 [Compound 400, (2-((1H-indol-6-yl)amino)pyridin-3-yl)methanol]
> 30 | O=C(NCc1csc(-c2ccc(Cl)cc2)n1)Nc1ccc2[nH]ccc2c1 [Compound 350]
> 30 | c1cc2ccc(Nc3ccc4c(n3)CCC4)nc2[nH]1 [Compound 566]
> 100 | O=C(Nc1ccc(C(F)(F)F)cc1)Nc1ccc2cc(-c3ccccc3)[nH]c2c1 [Compound 256]
> 30 | Cc1ccc(CCNC(=O)Nc2ccc3[nH]ccc3c2)cc1C [Compound 356]
> 30 | CC(C)(C)c1cc(NC(=O)Nc2ccc3[nH]ccc3c2)on1 [Compound 305]
> 30 | O=C(NCCOc1cccc(Br)c1)Nc1ccc2[nH]ccc2c1 [Compound 295]
> 30 | O=C(Nc1ccc(Oc2c(F)cccc2F)cc1)Nc1ccc2[nH]ccc2c1 [Compound 278]
